Assay results from US9017689B2, “Peptides for vaccine against birch allergy” (Circassia Limited, priority 2010, dated 2015).
Where two headings read alike, the source gives them in different places. Ends that are not written are not given here.

Key:
[1] = system: Peripheral blood mononuclear cells (PBMCs); assay: Cytokine release assay (IL-10, IL-13, IFN-g multiplex bead assay); format: cell-based, human; conditions: proportion of subjects in which peptide induced IL-13 or IFN-g above 100 pg/ml; 47 birch allergic subjects; peptide 100 μg/ml; 5 days
Procedure: Peripheral blood mononuclear cells (PBMCs) were isolated from heparinised blood by Ficoll density gradient centrifugation. […] Following stimulation, culture supernatants (100 μl) were harvested for testing by multiplex bead assay.
Multiplex cytokine bead assays (IL-10, IL-13, Interferon gamma (IFN-g)) were performed on thawed culture supernatants according to the manufacturer's instructions. Single measurements were performed for each culture supernatant sample. After completion of the multiplex assay, individual cytokine levels were determined by interpolation from the standard curve generated in the assay.

[2] = Solubility screening in trehalose matrices pH 2.65 to 7.03; format: physicochemical; conditions: for solubility: read-out: Solubility [mg per ml];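 as to all read-outs here: test items are peptides, each checked for solubility in every trehalose matrix, the matrices made up in distilled deionised water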
Procedure: The solubility of each of the nine peptides was evaluated in each of the matrices in accordance with Appendix 1.
Each matrix was prepared at a concentration of 10 mM of the buffering agent.
The procedure indicated is for the preparation of 100 mL of each buffer, but alternative volumes can be prepared by adjusting the quantities. • 0.1M stock solutions of sodium citrate and potassium dihydrogen phosphate were prepared. • Weight of trehalose dihydrate equivalent to 260 mM was transferred to an appropriate mixing vessel containing 70-80 mL of distilled deionised water and allowed to dissolve. • 10 mL of the appropriate stock 0.1M buffer solution was added to the mixing vessel and stirred. • The pH of the matrix was adjusted to the desired value by adding 2 mM hydrochloric acid or 0.1M sodium hydroxide as required. • The solutions were finally diluted to 100 g weight and the pH re-assessed.

[3] = 2 mM HCl and 260 mM trehalose dihydrate, pH 2.65
[4] = 10 mM potassium dihydrogen phosphate and 260 mM trehalose dihydrate, pH 6.03
[5] = 10 mM potassium dihydrogen phosphate and 260 mM trehalose dihydrate, pH 7.03
[6] = 10 mM sodium citrate and 260 mM trehalose dihydrate, pH 3.01
[7] = 10 mM sodium citrate and 260 mM trehalose dihydrate, pH 3.99
[8] = 10 mM sodium citrate and 260 mM trehalose dihydrate, pH 5.02
[9] = aqueous buffer, 10 mM potassium dihydrogen phosphate and 260 mM trehalose dihydrate, pH 6.03
[10] = aqueous buffer, 10 mM potassium dihydrogen phosphate and 260 mM trehalose dihydrate, pH 7.03
[11] = aqueous buffer, 10 mM sodium citrate and 260 mM trehalose dihydrate, pH 3.01
[12] = aqueous buffer, 10 mM sodium citrate and 260 mM trehalose dihydrate, pH 3.99
[13] = aqueous buffer, 10 mM sodium citrate and 260 mM trehalose dihydrate, pH 5.02
[14] = water, 2 mM HCl and 260 mM trehalose dihydrate, pH 2.65
[15] = 10 mM sodium citrate and 260 mM trehalose dihydrate, pH 6.01
[16] = aqueous buffer, 10 mM sodium citrate and 260 mM trehalose dihydrate, pH 6.01

Row | Sequence | Comments (solubility on preparation) [2, 3] | Solubility [mg per ml 'as is'] [2, 3] [mg per ml ‘as is’] | Solubility [μmol per ml] [2, 3] [μmol per ml] | Solubility after 24 Hours [2, 3] | Commute (solubility on preparation) [2, 4] | Solubility [mg per ml 'as is'] [2, 4] [mg per ml ‘as is’] | Solubility [μmol per ml] [2, 4] [μmol per ml] | Solubility after 24 Hours [2, 4] | Comments (solubility on preparation) [2, 5] | Solubility [mg per ml 'as is'] [2, 5] [mg per ml ‘as is’] | Solubility [μmol per ml] [2, 5] [μmol per ml] | Solubility after 24 Hours [2, 5] | Comments (solubility on preparation) [2, 6] | Solubility [mg per ml 'as is'] [2, 6] [mg per ml ‘as is’] | Solubility [μmol per ml] [2, 6] [μmol per ml] | Solubility after 24 Hours [2, 6] | Solubility [mg per ml 'as is'] [2, 7] [mg per ml ‘as is’] | Solubility [μmol per ml] [2, 7] [μmol per ml] | Comments (solubility on preparation) [2, 8] | Solubility [mg per ml 'as is'] [2, 8] [mg per ml ‘as is’] | further results
1 | IKYMVIQGEAGAVIRGK (GIKYMVIQGEAGAVIRGK; Betulaceae) [Bir13, Bet v2-derived peptide] |  |  |  |  |  |  |  |  |  |  |  |  |  |  |  |  |  |  |  |  | % responders [1]: 23%
2 | KEMGETLLRAVESYLLAHS [Bir09B] | Completely dissolved | 12.20 | 4.942 | Completely dissolved | Completely dissolved in | 0.36 | 0.147 | Precipitated out, | Completely dissolved | 21.70 | 8.790 | Completely dissolved | Completely dissolved | 11.62 | 4.707 | Completely dissolved | 11.40 | 4.618 | Completely dissolved | 12.75 | Comments (solubility on preparation) [2, 7]: Completely dissolved; Solubility after 24 Hours [2, 7]: Completely dissolved; Solubility [μmol per ml] [2, 8]: 5.165 μmol per ml; Solubility after 24 Hours [2, 8]: Completely dissolved; solubility [2, 9]: ≥ 315 µg/mL; solubility [2, 10]: ≥ 18900 µg/mL; solubility [2, 11]: ≥ 10100 µg/mL; solubility [2, 12]: ≥ 9920 µg/mL; solubility [2, 13]: ≥ 11100 µg/mL; solubility [2, 14]: ≥ 10600 µg/mL
3 | PAARMFKAFILEGDKLVPK [Bir02J] | Completely dissolved | 23.60 | 9.069 | Completely dissolved | Completely dissolved | 11.12 | 4.273 | Completely dissolved | Completely dissolved | 12.31 | 4.730 | Completely dissolved | Completely dissolved in | 0.38 | 0.147 | Precipitated out, | 0.39 | 0.148 | Completely dissolved in | 0.34 | Solubility [mg per ml] [2, 6]: 0.314 mg per ml; Comments (solubility on preparation) [2, 7]: Completely dissolved in; Solubility after 24 Hours [2, 7]: Precipitated out,; Solubility [μmol per ml] [2, 8]: 0.132 μmol per ml; Solubility after 24 Hours [2, 8]: Precipitated out,; Comments (solubility on preparation) [2, 15]: Completely dissolved in; Solubility [mg per ml 'as is'] [2, 15]: 0.39 mg per ml ‘as is’; Solubility [μmol per ml] [2, 15]: 0.150 μmol per ml; Solubility after 24 Hours [2, 15]: Precipitated out,; solubility [2, 9]: ≥ 9110 µg/mL; solubility [2, 10]: ≥ 10100 µg/mL; solubility [2, 12]: ≥ 315 µg/mL; solubility [2, 13]: ≥ 281 µg/mL; solubility [2, 16]: ≥ 320 µg/mL; solubility [2, 14]: ≥ 19300 µg/mL
4 | PGTIKKISFPEGFPFKYV [Bir04] | Completely dissolved | 20.50 | 8.639 | Completely dissolved | Completely dissolved | 9.86 | 4.155 | Completely dissolved | Completely dissolved | 21.50 | 9.061 | Completely dissolved | Completely dissolved | 22.58 | 9.516 | Completely dissolved | 20.36 | 8.580 | Completely dissolved | 21.52 | Comments (solubility on preparation) [2, 7]: Completely dissolved; Solubility after 24 Hours [2, 7]: Completely dissolved; Solubility [μmol per ml] [2, 8]: 9.069 μmol per ml; Solubility after 24 Hours [2, 8]: Completely dissolved; Comments (solubility on preparation) [2, 15]: Completely dissolved.; Solubility [mg per ml 'as is'] [2, 15]: 10.11 mg per ml ‘as is’; Solubility [μmol per ml] [2, 15]: 4.261 μmol per ml; Solubility after 24 Hours [2, 15]: Completely dissolved.; solubility [2, 9]: ≥ 8540 µg/mL; solubility [2, 10]: ≥ 18600 µg/mL; solubility [2, 11]: ≥ 19600 µg/mL; solubility [2, 12]: ≥ 17600 µg/mL; solubility [2, 13]: ≥ 18600 µg/mL; solubility [2, 16]: ≥ 8760 µg/mL; solubility [2, 14]: ≥ 17800 µg/mL
5 | SNEIKIVATPEGGSILK [Bir07C] | Completely dissolved | 11.48 | 5.747 | Completely dissolved | Completely dissolved in | 0.42 | 0.208 | Precipitated out, | Completely dissolved | 6.70 | 3.354 | Completely dissolved | Completely dissolved | 1.30 | 0.653 | Completely dissolved | 0.38 | 0.188 | Completely dissolved | 0.86 | Solubility [μmol per ml] [2, 8]: 0.433 μmol per ml; Solubility after 24 Hours [2, 8]: Completely dissolved; Comments (solubility on preparation) [2, 15]: Completely dissolved in; Solubility [mg per ml 'as is'] [2, 15]: 0.35 mg per ml ‘as is’; Solubility [μmol per ml] [2, 15]: 0.174 μmol per ml; Solubility after 24 Hours [2, 15]: Precipitated out,; solubility [2, 9]: ≥ 365 µg/mL; solubility [2, 10]: ≥ 5890 µg/mL; solubility [2, 11]: ≥ 1150 µg/mL; solubility [2, 12]: ≥ 330 µg/mL; solubility [2, 13]: ≥ 760 µg/mL; solubility [2, 16]: ≥ 306 µg/mL; solubility [2, 14]: ≥ 10100 µg/mL
